Experimental data taken from patent publication US12121525B2, “Methods for treating GI syndrome and graft versus host disease” (Sloan Kettering Institute for Cancer Research, priority 2007, dated 2024).

Columns and labels:
C57BL/6 hepatocytes = format: cell-based; details: 200 nM, CTL-treated asmase−/− hepatocytes
Method: Whereas Fas-mediated apoptotic death receptor activation requires generation of ceramide-rich platforms in some cell systems, CTL-induced platform generation was assessed in asmase^+/+ and asmase^−/− hepatocytes in the ex vivo model of GvHD. Alloactivated T cells induced rapid generation of ceramide-rich platforms on the surface of the target hepatocytes 10 min following co-incubation (FIG. 16C). Platform generation increased within one minute, peaked at 10 min, and persisted for over 60 min (FIG. 16D). Fas, required for apoptosis in this system, concentrated within the ceramide-rich platform as determined by confocal microscopy.
Platforms were detected as previously described. […]; Sigma-Aldrich) for 45 min at 4° C., washed twice in PBS containing 0.1% Triton X-100 and mounted in fluorescent mounting medium (Dako, Carpenteria CA). Fluorescence was detected using an Axiovert S-100 Zeiss fluorescence microscope equipped with a SPOT digital camera. The percentage of cells containing platforms, i.e. those in which the fluorescence condenses onto less than 15% of the cell surface, was determined by counting 150-250 cells per point. Alternately, platforms were identified using a mouse monoclonal anti-ceramide antibody MID 15B4 IgM (1:50 dilution, Alexis Biochemicals), mouse monoclonal anti-Fas CH-11 IgM (1:500 dilution, Upstate Biotechnology) or polyclonal rabbit anti-ASMase antibody 1598 (1:100 dilution) and detected using Cy3-conjugated anti-mouse or anti-rabbit IgM (1:500 dilution, Roche Molecular Biochemicals), respectively. Rabbit polyclonal anti-CD46 (1:1000 dilution, Santa Cruz Biotechnology, Santa Cruz CA) was used as a negative control. In some studies, confocal images were obtained using a Leica TCS SPZ upright confocal microscope. Alternatively, 0.5×10^6hepatocytes were stimulated for the indicated times with CTLs and platform formation was assessed as described.

splenic T cells [1] = experiment: Activation-induced cell death (AICD) assay, T cell apoptosis; format: cell-based, mouse; details: 500 nM; 16 hr
From the text: To define a role for target cell ASMase in AICD, asmase^+/+, asmase^−/− or MRL.1pr (FasR^−/−) T cells were stimulated for 24 hr with 10 microgam/ml ConA, washed, rested in medium containing 20 U/ml rIL-2 for 24 hr, and finally AICD was initiated by restimulation in medium containing 20 U/ml rIL-2 and increasing concentrations of plate bound anti-CD3 mAb for 24 hr. AICD induction by anti-CD3 mAb conferred ceramide-rich platform generation 4 hr following stimulation (FIG. 19D), evident in 26.4±1.6% of the population of asmase^+/+ T cells compared to 5.1±1.0% of asmase^−/− T cells (p<0.005). Confocal analysis identified colocalization of the sphingolipid GM1 (FIG. 19E) and Fas within ceramide-rich platforms in asmase^+/+ T cells.
To characterize the impact of platform generation on AICD, asmase^+/+ and asmase^−/− T cells were induced to undergo AICD and apoptosis was quantified 16 hr thereafter. Apoptosis in asmase^+/+ T cells was anti-CD3 mAb dose-dependent, reaching 32.9±5.2% apoptosis 16 hr post induction (FIG. 19F). […]
Harvested splenocytes were enriched for T lymphocytes by nylon wool passage, resulting in >90% purity based upon FITC-CD3 mAb staining by flow cytometry. […] Cells were subsequently fixed, stained with 25 μl of 24 μg/ml bis-benzimide trihydrochloride solution (Hoechst #33258; Sigma-Aldrich, Milwaukee Wisc.) and apoptosis was quantified by fluorescence microscopy, as above.

splenic T cells [2] = experiment: Platform generation in T cells after AICD induction; details: 500 nM; not shown

CCCCCCCCCCCCC/C=C/[C@@H](O)[C@H](CO)NC(=O)CCCCCCCCCCCCCCC [C16-ceramide]
platform formation, % of cells (C57BL/6 hepatocytes): 46.3±1.3% | apoptosis of asmase−/− T cells stimulated to undergo AICD (splenic T cells [1]): completely restored | platform generation in asmase−/− T cells stimulated to undergo AICD (splenic T cells [2]): completely restored
